From PubChem BioAssay (NCI)
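All cell lines were grown in 96-well plates and treated with compound for 48 hours. Definition used: TGI = concentration required for complete inhibition of growth.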

Experiments:
Assay in all cases: inhibition of tumour cell growth, NCI panel, 48 h
NCI-H460 lung = system: NCI-H460 lung
NCI-H522 lung = system: NCI-H522 lung
MDA-N = system: MDA-N
LOX IMVI melanoma = system: LOX IMVI melanoma
SN12C renal = system: SN12C renal
U251 CNS = system: U251 CNS
MDA-MB-435 = system: MDA-MB-435
MCF7 breast = system: MCF7 breast
SK-MEL-5 melanoma = system: SK-MEL-5 melanoma
A549 NSCLC = system: A549 NSCLC
PC-3 prostate = system: PC-3 prostate
SK-OV-3 ovarian = system: SK-OV-3 ovarian
HCT-15 colon = system: HCT-15 colon
DU-145 prostate = system: DU-145 prostate
SW-620 colon = system: SW-620 colon
TK-10 renal = system: TK-10 renal
RXF 393 renal = system: RXF 393 renal
OVCAR-4 ovarian = system: OVCAR-4 ovarian
CAKI-1 renal = system: CAKI-1 renal
COLO 205 colon = system: COLO 205 colon
MDA-MB-231 breast = system: MDA-MB-231 breast
NCI-H23 lung = system: NCI-H23 lung
CCRF-CEM leukemia = system: CCRF-CEM leukemia
NCI/ADR-RES ovarian = system: NCI/ADR-RES ovarian
EKVX NSCLC = system: EKVX NSCLC
SNB-75 CNS = system: SNB-75 CNS
ACHN renal = system: ACHN renal
HL-60(TB) leukemia = system: HL-60(TB) leukemia
HT29 colon = system: HT29 colon
OVCAR-8 ovarian = system: OVCAR-8 ovarian
SF-268 CNS = system: SF-268 CNS
SK-MEL-2 melanoma = system: SK-MEL-2 melanoma
SF-539 CNS = system: SF-539 CNS
HCC-2998 colon = system: HCC-2998 colon
SK-MEL-28 melanoma = system: SK-MEL-28 melanoma
BT-549 breast = system: BT-549 breast
MALME-3M melanoma = system: MALME-3M melanoma
OVCAR-3 ovarian = system: OVCAR-3 ovarian
RPMI-8226 leukemia = system: RPMI-8226 leukemia
HCT-116 colon = system: HCT-116 colon
A498 renal = system: A498 renal
T-47D breast = system: T-47D breast
OVCAR-5 ovarian = system: OVCAR-5 ovarian
K-562 leukemia = system: K-562 leukemia
SNB-19 CNS = system: SNB-19 CNS
HOP-92 NSCLC = system: HOP-92 NSCLC
M14 melanoma = system: M14 melanoma
KM12 colon = system: KM12 colon
HS 578T breast = system: HS 578T breast
UACC-257 melanoma = system: UACC-257 melanoma
NCI-H226 lung = system: NCI-H226 lung
UO-31 renal = system: UO-31 renal
HOP-62 NSCLC = system: HOP-62 NSCLC
IGROV1 ovarian = system: IGROV1 ovarian
UACC-62 melanoma = system: UACC-62 melanoma
786-0 renal = system: 786-0 renal
SF-295 CNS = system: SF-295 CNS
SR leukemia = system: SR leukemia
MOLT-4 leukemia = system: MOLT-4 leukemia

## O=[N+]([O-])c1ccc(C(Nc2ccccc2)c2ccc3cccnc3c2O)cc1 (centres undefined)
NCI-H460 lung
  TGI: > 60.6 µM
NCI-H522 lung
  TGI: 28.6 µM
MDA-N
  TGI: > 100 µM
LOX IMVI melanoma
  TGI: 61 µM
SN12C renal
  TGI: > 56.2 µM
U251 CNS
  TGI: 25.2 µM
MDA-MB-435
  TGI: > 78 µM
MCF7 breast
  TGI: > 75.6 µM
SK-MEL-5 melanoma
  TGI: 22.3 µM
A549 NSCLC
  TGI: > 100 µM
PC-3 prostate
  TGI: > 87.2 µM
SK-OV-3 ovarian
  TGI: > 100 µM
HCT-15 colon
  TGI: > 100 µM
DU-145 prostate
  TGI: > 100 µM
SW-620 colon
  TGI: > 100 µM
TK-10 renal
  TGI: 68.8 µM
RXF 393 renal
  TGI: 24.6 µM
OVCAR-4 ovarian
  TGI: 47.7 µM
CAKI-1 renal
  TGI: > 62.3 µM
COLO 205 colon
  TGI: 45.6 µM
MDA-MB-231 breast
  TGI: 59.9 µM
NCI-H23 lung
  TGI: > 100 µM
CCRF-CEM leukemia
  TGI: > 22.2 µM
NCI/ADR-RES ovarian
  TGI: > 69.3 µM
EKVX NSCLC
  TGI: > 54.6 µM
SNB-75 CNS
  TGI: 55.5 µM
ACHN renal
  TGI: > 100 µM
HL-60(TB) leukemia
  TGI: 13.4 µM
HT29 colon
  TGI: > 100 µM
OVCAR-8 ovarian
  TGI: 52.3 µM
SF-268 CNS
  TGI: > 52.7 µM
SK-MEL-2 melanoma
  TGI: > 100 µM
SF-539 CNS
  TGI: 21.1 µM
HCC-2998 colon
  TGI: 97.7 µM
SK-MEL-28 melanoma
  TGI: > 100 µM
BT-549 breast
  TGI: > 70.3 µM
MALME-3M melanoma
  TGI: > 65.2 µM
OVCAR-3 ovarian
  TGI: 33.6 µM
RPMI-8226 leukemia
  TGI: 38.5 µM
HCT-116 colon
  TGI: > 75.3 µM
A498 renal
  TGI: > 100 µM
T-47D breast
  TGI: 44.4 µM
OVCAR-5 ovarian
  TGI: > 100 µM
K-562 leukemia
  TGI: > 57.4 µM
SNB-19 CNS
  TGI: > 100 µM
HOP-92 NSCLC
  TGI: 72.9 µM
M14 melanoma
  TGI: > 74.4 µM
KM12 colon
  TGI: > 100 µM
HS 578T breast
  TGI: > 71.7 µM
UACC-257 melanoma
  TGI: 42.8 µM
NCI-H226 lung
  TGI: > 27.7 µM
UO-31 renal
  TGI: 32.3 µM
HOP-62 NSCLC
  TGI: > 100 µM
IGROV1 ovarian
  TGI: > 100 µM
UACC-62 melanoma
  TGI: 35.8 µM
786-0 renal
  TGI: 26.1 µM
SF-295 CNS
  TGI: > 100 µM

## Cc1ccc(S(=O)(=O)N(CC(O)COc2ccccc2)c2ccc(F)cc2F)cc1 (centres undefined)
NCI-H460 lung
  TGI: 33.7 µM
MDA-N
  TGI: 29.8 µM
LOX IMVI melanoma
  TGI: 27.3 µM
SN12C renal
  TGI: 34.2 µM
U251 CNS
  TGI: 27.5 µM
MDA-MB-435
  TGI: 31.4 µM
SK-MEL-5 melanoma
  TGI: 27.8 µM
A549 NSCLC
  TGI: 26.9 µM
PC-3 prostate
  TGI: 25.3 µM
SK-OV-3 ovarian
  TGI: 41.6 µM
HCT-15 colon
  TGI: 30.8 µM
DU-145 prostate
  TGI: 46.9 µM
SW-620 colon
  TGI: 31.9 µM
TK-10 renal
  TGI: 45.9 µM
SR leukemia
  TGI: 73.6 µM
RXF 393 renal
  TGI: 27 µM
OVCAR-4 ovarian
  TGI: 23.8 µM
CAKI-1 renal
  TGI: 29.9 µM
COLO 205 colon
  TGI: 28.6 µM
MDA-MB-231 breast
  TGI: 39 µM
NCI-H23 lung
  TGI: 27.7 µM
MOLT-4 leukemia
  TGI: 94.2 µM
CCRF-CEM leukemia
  TGI: 53.8 µM
NCI/ADR-RES ovarian
  TGI: 33.3 µM
EKVX NSCLC
  TGI: 35.7 µM
SNB-75 CNS
  TGI: 29.4 µM
ACHN renal
  TGI: 30.6 µM
HL-60(TB) leukemia
  TGI: 57.6 µM
HT29 colon
  TGI: 29.4 µM
OVCAR-8 ovarian
  TGI: 31.3 µM
SF-268 CNS
  TGI: 31.8 µM
SK-MEL-2 melanoma
  TGI: 30.4 µM
SF-539 CNS
  TGI: 30 µM
HCC-2998 colon
  TGI: 29.7 µM
SK-MEL-28 melanoma
  TGI: 29.7 µM
MALME-3M melanoma
  TGI: 36 µM
OVCAR-3 ovarian
  TGI: 34.4 µM
RPMI-8226 leukemia
  TGI: 34.5 µM
A498 renal
  TGI: 28.7 µM
T-47D breast
  TGI: 46.4 µM
OVCAR-5 ovarian
  TGI: 34.1 µM
K-562 leukemia
  TGI: > 100 µM
SNB-19 CNS
  TGI: 41.9 µM
HOP-92 NSCLC
  TGI: 12.4 µM
M14 melanoma
  TGI: 34.1 µM
KM12 colon
  TGI: 68.1 µM
HS 578T breast
  TGI: 39.9 µM
UACC-257 melanoma
  TGI: 33.3 µM
NCI-H226 lung
  TGI: 41.9 µM
UO-31 renal
  TGI: 26.9 µM
HOP-62 NSCLC
  TGI: 30.1 µM
UACC-62 melanoma
  TGI: 31.9 µM
786-0 renal
  TGI: 31 µM
SF-295 CNS
  TGI: 34.4 µM

## CC(C)OC1OC(CO)C(O)CC1n1cc(F)c(=O)[nH]c1=O (centres undefined)
NCI-H460 lung
  TGI: > 100 µM
NCI-H522 lung
  TGI: 37.8 µM
MDA-N
  TGI: > 100 µM
LOX IMVI melanoma
  TGI: > 100 µM
SN12C renal
  TGI: > 100 µM
U251 CNS
  TGI: > 100 µM
MDA-MB-435
  TGI: > 100 µM
MCF7 breast
  TGI: > 100 µM
SK-MEL-5 melanoma
  TGI: > 100 µM
A549 NSCLC
  TGI: > 100 µM
PC-3 prostate
  TGI: > 100 µM
HCT-15 colon
  TGI: > 100 µM
DU-145 prostate
  TGI: > 100 µM
SW-620 colon
  TGI: > 100 µM
TK-10 renal
  TGI: > 100 µM
RXF 393 renal
  TGI: > 100 µM
OVCAR-4 ovarian
  TGI: > 100 µM
CAKI-1 renal
  TGI: > 100 µM
COLO 205 colon
  TGI: > 100 µM
MDA-MB-231 breast
  TGI: > 100 µM
NCI-H23 lung
  TGI: > 100 µM
NCI/ADR-RES ovarian
  TGI: > 100 µM
EKVX NSCLC
  TGI: > 100 µM
SNB-75 CNS
  TGI: > 100 µM
ACHN renal
  TGI: > 100 µM
HT29 colon
  TGI: > 100 µM
OVCAR-8 ovarian
  TGI: > 100 µM
SF-268 CNS
  TGI: > 100 µM
SK-MEL-2 melanoma
  TGI: > 100 µM
SF-539 CNS
  TGI: > 100 µM
HCC-2998 colon
  TGI: > 100 µM
SK-MEL-28 melanoma
  TGI: > 100 µM
BT-549 breast
  TGI: > 100 µM
MALME-3M melanoma
  TGI: > 100 µM
OVCAR-3 ovarian
  TGI: > 100 µM
RPMI-8226 leukemia
  TGI: > 100 µM
HCT-116 colon
  TGI: > 100 µM
A498 renal
  TGI: > 100 µM
T-47D breast
  TGI: > 100 µM
OVCAR-5 ovarian
  TGI: > 100 µM
K-562 leukemia
  TGI: 86.4 µM
SNB-19 CNS
  TGI: > 100 µM
HOP-92 NSCLC
  TGI: > 100 µM
M14 melanoma
  TGI: > 100 µM
KM12 colon
  TGI: > 100 µM
HS 578T breast
  TGI: > 100 µM
UACC-257 melanoma
  TGI: > 100 µM
NCI-H226 lung
  TGI: > 100 µM
UO-31 renal
  TGI: > 100 µM
IGROV1 ovarian
  TGI: > 100 µM
UACC-62 melanoma
  TGI: > 100 µM
786-0 renal
  TGI: > 100 µM
SF-295 CNS
  TGI: > 100 µM
